Data published in US20080221134A1, “8-ALKYNYLXANTHINES AND DERIVATIVES” (priority 2006, published 2008).

Experiments:
Adenosine A2B = molecular target: T1, Adenosine A2B (Homo sapiens, UniProt P29275); assay: Radioligand binding assay 2, Adenosine A2B; conditions: at 1 μmol/l; human recombinant HEK-293 cells, [3H]MRS 1754; read-out: A2B AR % inhibition of agonist binding
T1 construct: expressed in transfected cells; host or cells: HEK-293 cells
T1 sequence (P29275 1-332): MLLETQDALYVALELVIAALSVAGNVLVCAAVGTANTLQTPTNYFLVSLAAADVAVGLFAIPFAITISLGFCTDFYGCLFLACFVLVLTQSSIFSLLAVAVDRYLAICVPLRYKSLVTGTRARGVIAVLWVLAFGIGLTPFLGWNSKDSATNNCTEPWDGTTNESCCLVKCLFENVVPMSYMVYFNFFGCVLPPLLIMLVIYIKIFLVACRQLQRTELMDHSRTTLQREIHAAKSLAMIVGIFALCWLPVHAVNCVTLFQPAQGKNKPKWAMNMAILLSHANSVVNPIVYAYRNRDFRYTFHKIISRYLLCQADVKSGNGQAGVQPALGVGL
Procedure: (§1) The assays were performed under the conditions described below. The literature references are also provided for each assay:
The adenosine A2B radioligand binding assay used is further described in Stehle J. H. et al., Mol. Endocrinol., 1992, 6, 384 and is incorporated herein by reference.
(§2) The specific ligand binding to the receptors is defined as the difference between the total binding and the non-specific binding determined in the presence of an excess of unlabelled ligand. The results are expressed as a percent of control specific binding and as percent inhibition of control specific binding obtained in the presence of the test compounds.

Adenosine A3 = molecular target: T2, Adenosine A3 (Homo sapiens, UniProt P0DMS8); assay: Radioligand binding assay 2, Adenosine A3; conditions: at 1 μmol/l; human recombinant HEK-293 cells, [125I]AB-MECA; read-out: A3 AR % inhibition of agonist binding
T2 construct: expressed in transfected cells; host or cells: HEK-293 cells
T2 sequence (P0DMS8 1-318): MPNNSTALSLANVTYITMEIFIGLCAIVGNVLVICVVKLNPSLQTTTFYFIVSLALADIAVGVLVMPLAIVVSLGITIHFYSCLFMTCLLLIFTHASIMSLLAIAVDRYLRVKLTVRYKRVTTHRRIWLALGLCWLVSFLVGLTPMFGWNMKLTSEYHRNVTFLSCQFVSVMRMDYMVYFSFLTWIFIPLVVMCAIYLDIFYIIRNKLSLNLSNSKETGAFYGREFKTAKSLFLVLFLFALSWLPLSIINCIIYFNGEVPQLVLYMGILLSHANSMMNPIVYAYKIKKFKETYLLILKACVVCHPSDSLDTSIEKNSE
Procedure: as §1
The adenosine A3 radioligand binding assay used is further described in Salvatore C. A. et al., Proc. Natl. Acad. Sci. USA, 1993, 90, 10365 and is incorporated herein by reference.
as §2

Adenosine A1 = molecular target: T3, Adenosine A1 (Homo sapiens, UniProt P30542); assay: Radioligand binding assay 2, Adenosine A1; set-up: expressed in transfected cells; host or cells: CHO cells; conditions: at 1 μmol/l; human recombinant CHO cells, [3H]CCPA; read-out: A1 AR % inhibition of agonist binding
T3 sequence (P30542 1-326): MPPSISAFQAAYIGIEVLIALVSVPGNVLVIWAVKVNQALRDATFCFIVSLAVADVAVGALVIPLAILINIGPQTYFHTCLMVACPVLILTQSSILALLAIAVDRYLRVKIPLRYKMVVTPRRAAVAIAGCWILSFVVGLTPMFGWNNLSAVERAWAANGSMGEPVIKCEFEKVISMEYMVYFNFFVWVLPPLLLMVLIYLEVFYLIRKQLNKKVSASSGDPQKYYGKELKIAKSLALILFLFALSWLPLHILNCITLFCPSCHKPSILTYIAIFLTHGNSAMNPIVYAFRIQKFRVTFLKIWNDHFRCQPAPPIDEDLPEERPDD
Procedure: as §1
The adenosine A1 radioligand binding assay used is further described in Rivkees S. A. et al., J. Biol. Chem., 1995, 270, 20485 and is incorporated herein by reference.
as §2

Adenosine A2A = Adenosine A2A (Homo sapiens, UniProt P29274); assay: Radioligand binding assay 2, Adenosine A2A; set-up: expressed in transfected cells; host or cells: HEK-293 cells; conditions: at 1 μmol/l; human recombinant HEK-293 cells, [3H]CGS 21680; read-out: A2A AR % inhibition of agonist binding
Sequence of Adenosine A2A (P29274 whole entry): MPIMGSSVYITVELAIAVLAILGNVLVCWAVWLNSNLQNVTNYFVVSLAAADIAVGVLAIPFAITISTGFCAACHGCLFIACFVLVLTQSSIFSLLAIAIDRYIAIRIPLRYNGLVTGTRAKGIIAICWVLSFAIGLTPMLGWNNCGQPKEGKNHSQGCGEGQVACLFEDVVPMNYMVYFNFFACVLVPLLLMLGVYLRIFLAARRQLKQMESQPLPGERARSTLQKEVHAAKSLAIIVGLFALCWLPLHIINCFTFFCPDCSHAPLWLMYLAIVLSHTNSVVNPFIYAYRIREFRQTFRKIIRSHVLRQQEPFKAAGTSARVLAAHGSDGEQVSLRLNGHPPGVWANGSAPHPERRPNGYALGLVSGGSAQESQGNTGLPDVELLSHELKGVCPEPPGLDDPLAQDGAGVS
Procedure: as §1
The adenosine A2A radioligand binding assay used is further described in Luthin D. R. et al., Mol. Pharmacol., 1995, 47 and is incorporated herein by reference.
as §2

MAO-B = molecular target: T4, MAO-B (Homo sapiens, UniProt P27338); assay: MAO-B inhibition; assay type: biochemical
T4 sequence (P27338 1-520): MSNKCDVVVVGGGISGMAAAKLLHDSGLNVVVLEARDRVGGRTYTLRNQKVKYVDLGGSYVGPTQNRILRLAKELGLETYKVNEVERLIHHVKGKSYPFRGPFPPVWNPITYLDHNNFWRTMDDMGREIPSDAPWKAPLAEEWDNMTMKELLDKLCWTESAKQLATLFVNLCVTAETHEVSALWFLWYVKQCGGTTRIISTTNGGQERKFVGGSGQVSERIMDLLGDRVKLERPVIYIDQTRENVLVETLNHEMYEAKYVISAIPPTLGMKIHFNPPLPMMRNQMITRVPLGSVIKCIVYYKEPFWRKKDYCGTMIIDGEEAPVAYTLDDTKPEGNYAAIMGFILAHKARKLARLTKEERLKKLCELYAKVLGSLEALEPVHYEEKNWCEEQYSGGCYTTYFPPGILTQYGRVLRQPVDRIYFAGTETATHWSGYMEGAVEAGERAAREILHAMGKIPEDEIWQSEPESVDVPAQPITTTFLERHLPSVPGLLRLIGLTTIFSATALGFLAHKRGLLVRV

Row | SMILES | inhibition at 1 µM (Adenosine A2B) [%] | inhibition at 1 µM (Adenosine A3) [%] | inhibition at 1 µM (Adenosine A1) [%] | inhibition at 1 µM (Adenosine A2A) [%] | Mao-B-inhibition values (MAO-B) | melting point [°C]
1 | C#CCn1c(=O)c2c(nc(C#Cc3cccc(O)c3)n2C)n(C)c1=O [8-(3-Hydroxyphenylethynyl)-3,7-dimethyl-1-prop-2-ynyl-3,7-dihydropurine-2,6-dione] |  |  |  |  |  | 271
2 | C#CCn1c(=O)c2c(nc(C#Cc3cccc(OC)c3)n2C)n(CCCO)c1=O [drawing 611] | 6 | 37 | 41 | 93 |  | 
3 | C#CCn1c(=O)c2c(nc(C#Cc3ccc(OC)c(OC)c3)n2C)n(CCCO)c1=O [drawing 612] | 14 | 36 | 34 | 97 |  | 
4 | C#CCn1c(=O)c2c(nc(C#Cc3cccc(C)c3)n2C)n(CCCO)c1=O [drawing 613] | 17 | 54 | 43 | 92 |  | 
5 | C#CCn1c(=O)c2c(nc(C#Cc3cccc(OC(C)=O)c3)n2C)n(C)c1=O [8-(3-Acetoxyphenylethynyl)-3,7-dimethyl-1-prop-2-ynyl-3,7-dihydropurine-2,6-dione] |  |  |  |  |  | 238
6 | C#CCn1c(=O)c2c(nc(C#Cc3ccc(OC)c(OC)c3)n2C)n(CC)c1=O [drawing 608] | 14 | 38 | 4 | 95 |  | 

Further lines, with some results ahead:

Row | inhibition at 1 µM (Adenosine A2B) [%] | inhibition at 1 µM (Adenosine A3) [%] | inhibition at 1 µM (Adenosine A1) [%] | inhibition at 1 µM (Adenosine A2A) [%] | Mao-B-inhibition values (MAO-B) | SMILES | melting point [°C]
7 | 19 | 24 | 5 | 81 |  | C#CCn1c(=O)c2c(nc(C#Cc3cccc(OC)c3)n2C)n(C)c1=O [drawing 607] | 
8 |  |  |  |  | submikromolar range | C#CCn1c(=O)c2c(nc(C#Cc3cccc(Br)c3)n2C)n(C)c1=O [8-(3-bromophenylethynyl)-3,7-dimethyl-1-prop-2-ynyl-3,7-dihydropurine-2,6-dione] | 
9 | 19 | 16 | 10 | 85 |  | C#CCn1c(=O)c2c(nc(C#Cc3ccc(OC)c(OC)c3)n2C)n(C)c1=O [drawing 609] | 
10 | 22 | 37 | 24 | 86 |  | C#CCn1c(=O)c2c(nc(C#Cc3cccc(OC)c3)n2CC#C)n(C)c1=O [drawing 610] | 
11 |  |  |  |  | submikromolar range | C#CCn1c(=O)c2c(nc(C#Cc3cccc(Cl)c3)n2C)n(C)c1=O [8-(3-chlorophenylethynyl)-3,7-dimethyl-1-prop-2-ynyl-3,7-dihydropurine-2,6-dione] | 
